Assay results from PubChem BioAssay (NCI).
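These data come from cells grown in 96-well plates and exposed to compound for 48 hours at five concentrations. TGI marks complete inhibition of growth.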

Experiments:
Assay in all cases: DTP human tumour cell line panel, 48 h
HL-60(TB) leukemia = system: HL-60(TB) leukemia
SNB-75 CNS = system: SNB-75 CNS
HT29 colon = system: HT29 colon
DLD-1 colon = system: DLD-1 colon
UACC-62 melanoma = system: UACC-62 melanoma
M19-MEL melanoma = system: M19-MEL melanoma
COLO 205 colon = system: COLO 205 colon
UO-31 renal = system: UO-31 renal
OVCAR-4 ovarian = system: OVCAR-4 ovarian
SW-620 colon = system: SW-620 colon
RXF 393 renal = system: RXF 393 renal
SK-MEL-28 melanoma = system: SK-MEL-28 melanoma
HOP-92 NSCLC = system: HOP-92 NSCLC
K-562 leukemia = system: K-562 leukemia
SF-295 CNS = system: SF-295 CNS
KM20L2 colon = system: KM20L2 colon
NCI-H23 lung = system: NCI-H23 lung
SN12C renal = system: SN12C renal
OVCAR-8 ovarian = system: OVCAR-8 ovarian
DMS 273 small cell lung = system: DMS 273 small cell lung

SMILES: CCOC(=O)NC(=O)c1cn(CCSCCOC(=O)NCCCCCCNC(=O)OCCSCCn2cc(C(=O)NC(=O)OCC)c(=O)[nH]c2=O)c(=O)[nH]c1=O
- TGI (HL-60(TB) leukemia): > 100 µM
- TGI (SNB-75 CNS): > 100 µM
- TGI (HT29 colon): > 100 µM
- TGI (DLD-1 colon): > 100 µM
- TGI (UACC-62 melanoma): > 100 µM
- TGI (M19-MEL melanoma): > 100 µM
- TGI (COLO 205 colon): > 100 µM
- TGI (UO-31 renal): > 100 µM
- TGI (OVCAR-4 ovarian): > 100 µM
- TGI (SW-620 colon): > 100 µM
- TGI (RXF 393 renal): > 100 µM
- TGI (SK-MEL-28 melanoma): > 100 µM
- TGI (HOP-92 NSCLC): > 100 µM
- TGI (K-562 leukemia): > 100 µM
- TGI (SF-295 CNS): > 100 µM
- TGI (KM20L2 colon): > 100 µM
- TGI (NCI-H23 lung): > 100 µM
- TGI (SN12C renal): > 100 µM
- TGI (OVCAR-8 ovarian): > 100 µM
- TGI (DMS 273 small cell lung): > 100 µM

SMILES: Cc1cc(N=Nc2ccc(N=Nc3c(O)c(S(=O)(=O)O)cc4cc(S(=O)(=O)O)ccc34)cc2C)ccc1N=Nc1ccc2cc(S(=O)(=O)O)cc(S(=O)(=O)O)c2c1
- TGI (HL-60(TB) leukemia): > 100 µM
- TGI (SNB-75 CNS): > 100 µM
- TGI (HT29 colon): > 31.6 µM
- TGI (DLD-1 colon): > 100 µM
- TGI (UACC-62 melanoma): > 100 µM
- TGI (M19-MEL melanoma): > 100 µM
- TGI (COLO 205 colon): > 100 µM
- TGI (UO-31 renal): > 100 µM
- TGI (OVCAR-4 ovarian): > 100 µM
- TGI (SW-620 colon): > 100 µM
- TGI (RXF 393 renal): > 100 µM
- TGI (SK-MEL-28 melanoma): > 100 µM
- TGI (HOP-92 NSCLC): > 100 µM
- TGI (K-562 leukemia): > 100 µM
- TGI (SF-295 CNS): > 100 µM
- TGI (KM20L2 colon): > 100 µM
- TGI (NCI-H23 lung): > 100 µM
- TGI (SN12C renal): > 100 µM
- TGI (OVCAR-8 ovarian): > 31.6 µM
- TGI (DMS 273 small cell lung): > 100 µM
